Assay results from ChEMBL document CHEMBL4834455, “Sesquiterpenes and Steroids from an Endophytic Eutypella scoparia” (J Nat Prod, 2021).
Activity calls are given as the source filed them. No cut-off for these calls is given here.

How the values were obtained:
HeLa = test: Antiproliferative activity against human HeLa cells assessed as cell growth inhibition measured after 48 hrs by MTT assay; assay type: functional, cell-based
Staphylococcus aureus [1] = test: Antibacterial activity against methicillin-resistant Staphylococcus aureus JCSC3063 assessed as bacterial growth inhibition by microbroth dilution method; assay type: functional
MCF7 = test: Antiproliferative activity against human MCF7 cells assessed as cell growth inhibition measured after 48 hrs by MTT assay; assay type: functional, cell-based
[2] = Cytotoxicity against African green monkey MARC145 cells assessed as cell growth inhibition measured after 48 hrs by MTT assay; assay type: cell-based; conditions: chlorocebus aethiops, marc145, 48 h
Staphylococcus aureus [3] = test: Antibacterial activity against Staphylococcus aureus CMCC26003 assessed as bacterial growth inhibition by microbroth dilution method; assay type: functional
MDA-MB-231 = test: Antiproliferative activity against human MDA-MB-231 cells assessed as cell growth inhibition measured after 48 hrs by MTT assay; assay type: functional, cell-based

| Compound | Activity (HeLa) | Activity (Staphylococcus aureus [1]) | Activity (MCF7) | Activity [2] | Activity (Staphylococcus aureus [3]) | Activity (MDA-MB-231) |
| --- | --- | --- | --- | --- | --- | --- |
| C=C1C[C@@H](O)C[C@@]2(C)CC[C@H](C(C)(C)O)C[C@H]12 | inactive | inactive | inactive | Non-Toxic | inactive | inactive |
| CC1=CCC[C@H]2CC3=C(CO)C(=O)OC3=C[C@]12C | inactive | inactive | inactive | Non-Toxic | inactive | inactive |
| C[C@H]1CCC(=O)[C@@]2(C)CCC(C(C)(C)O)=C[C@H]12 | inactive | inactive | inactive | Non-Toxic | inactive | inactive |
| CC1=CC(=O)C[C@@]2(C)CC[C@H](C(C)(C)O)C[C@H]12 | inactive | inactive | inactive | Non-Toxic | inactive | inactive |
| CC(=O)OCC(=O)[C@H]1CC[C@]2(C)CCC=C(C)[C@H]2C1 | inactive | inactive | inactive | Non-Toxic | inactive | inactive |
| C[C@H]1CCC(=O)[C@@]2(C)CC=C(C(C)(C)O)C[C@H]12 | inactive | inactive | inactive | Non-Toxic | inactive | inactive |
| CC[C@H](CC[C@@H](C)[C@H]1CC[C@H]2[C@@H]3CC=C4C[C@@H](O)CC[C@]4(C)[C@H]3CC[C@]12C)C(C)C [BETA-SITOSTEROL] | inactive | inactive | inactive | Non-Toxic | inactive | inactive |
| C[C@H]1CCC(=O)[C@@]2(C)CC[C@H](C(C)(C)O)[C@H](O)[C@H]12 | inactive | inactive | inactive | Non-Toxic | inactive | inactive |
| CC(C)=CCC/C(C)=C/CC/C(C)=C/CC/C=C(\C)CC/C=C(\C)CCC=C(C)C [SQUALENE] | inactive | inactive | inactive | Non-Toxic | inactive | inactive |
| CC1=C2C[C@@H](C(C)(C)O)CC[C@]2(C)CCC1=O | inactive | inactive | inactive | Non-Toxic | inactive | inactive |
| CC1=CCC[C@@]2(C)C[C@H]3OC(=O)[C@@H](C)[C@@H]3C[C@H]12 | inactive | inactive | inactive | Non-Toxic | inactive | inactive |
| C=C1CCC(=O)[C@@]2(C)CC[C@H](C(C)(C)O)C[C@H]12 | inactive | inactive | inactive | Non-Toxic | inactive | inactive |
| CC1=CC(=O)C[C@@]2(C)CC[C@H](C(C)CO)C[C@H]12 (some centres not stated) | inactive | inactive | inactive | Non-Toxic | inactive | inactive |
| C=C(C(C)C)[C@H](O)C[C@@H](C)[C@H]1CC[C@@]2(C)C3=C(CC[C@]12C)[C@@]1(C)CCC(=O)C(C)(C)[C@@H]1CC3 | inactive | inactive | inactive | Non-Toxic | inactive | inactive |
| CC(C)[C@@H](C)/C=C/[C@@H](C)[C@H]1CCC2=C3C=CC4=CC(=O)CC[C@]4(C)[C@H]3CC[C@@]21C | inactive | inactive | inactive | Non-Toxic | inactive | inactive |
| C=C1CCC[C@@]2(C)CC[C@H](C(C)(C)O)C[C@H]12 | inactive | inactive | inactive | Non-Toxic | inactive | inactive |
| CC(C)[C@H](C)/C=C/[C@@H](C(=O)O)[C@H]1CCC2=C3C=C[C@H]4CC(=O)CC[C@]4(C)[C@H]3CC[C@@]21C | inactive | inactive | inactive | Non-Toxic | inactive | inactive |
| CC1=CCCC2(C)CC[C@H](C(C)CO)C[C@H]12 (single isomer, unassigned) | inactive | – | inactive | Non-Toxic | 6.3 µg/mL | inactive |
